For one data set, the system named is UW228 cells. The data set can be described thus: TNFα and cisplatin combination, sulphorodamine B viability. The data set is classed as cell-based, human. Conditions: stably transduced UW228, 1 μM and 5 μM cisplatin. As to the method:
Cell viability was measured at different time points using sulphorodamine B assay. Stably transduced UW228 were treated with 1 μM and 5 μM cisplatin chemotherapy 48 hrs after seeding the cells. Data are represented as mean±SEM.***P≤0.001.

The next data set deals with DIPG. Conditions: 2 children, both died after treatment; cited from earlier work.
The test system of data set [1] is recurrent human malignant glioma. Conditions: cited from earlier work.
The conditions of data set [2]: systemic administration, clinical trials; cited from earlier work.

Consider four compounds from patent publication US11820792B2, “Cancer treatment” (Imperial College Innovations Limited, priority 2017, dated 2023).

Where only a bound is given, the exact number is not on record here.

On to `N.N.[Cl][Pt][Cl]` [cisplatin], for which the “effect of combination on tmTNFα cytokine gene therapy (cell viability)” value with UW228 cells is recorded as “increases”.

With `CC[C@@]1(O)C(=O)OCc2c1cc1n(c2=O)Cc2cc3c(CN(C)C)c(O)ccc3nc2-1` [topotecan], the tumour response entry with DIPG was “reduction in tumour size”.

In the case of “IL-4: Interleukin-4 protein injected intratumorally by convection enhanced delivery”, the “neurotoxicity to normal brain” value in data set [1] (histology, any patient) is on record as “No histological evidence of neurotoxicity”. Moreover, in data set [1] (intratumoral, CED), the “patients showing glioma necrosis” value was “Six of nine”. Also, the “disease free time after the procedure” value in data set [1] (one patient) was above 18 months. Further, the systemic toxicity entry in data set [1] (treated patients) was “no drug-related systemic toxicity”.

For the compound “rhIL-15: Recombinant human IL-15 cytokine given systemically in clinical trials”, the plasma half-life in data set [2] is reported as below 1 h.
